# Assay results as given in ChEMBL document CHEMBL3507680, “University of Dundee, Gates Library screen for HepG2 cell viability”.
# Assay: Human HepG2 cell viability assay in 384 well format
# Assay type: toxicity, cell-based
# Parameters: dose 125 nL, time 70.5 hour; concentration not given beside the values
# Details: HepG2 cells, read-out: Inhibition
row,Compound,cytotoxicity at 70.5 h
1,COCCN1CCC2(CC1)CN(C(=O)c1ccco1)CCO2,12.3%
2,O[C@]12CCNC[C@H]1CN(c1ncccc1Cl)CC2,-16.6%
3,CCC(C)(COc1ncccc1Cl)NCC(=O)NC1CCCCC1 (centres undefined),-14.9%
4,COc1cccc(N2CCN(Cc3ccc4ccn(C)c4c3)CC2=O)c1,-5.61%
5,CO[C@@H]1CCN(S(=O)(=O)c2cccs2)[C@H]1Cc1cccnc1,-4.13%
6,CCc1nc(CN(C)Cc2ncc(-c3cccs3)o2)cs1,-1.61%
7,Cc1c(NCc2cccc(C#N)c2)cccc1S(=O)(=O)NC1CC1,4.95%
8,COCCN1CCC(CNC(=O)C2(c3cccc(C)c3)CC2)C1 (centres undefined),17.2%
9,CN(C)c1ccc(-c2noc([C@@H]3CCCN3)n2)cn1,6.36%
10,CCCNC(c1ccc(F)cc1)c1cccnc1 (centres undefined),-19.4%
11,O=C(c1ccc(Cl)cc1)N1CCC(N2CCOC2=O)CC1,-7.62%
12,Fc1ccc(C2CCCN2Cc2nc(Cc3ccccc3F)no2)cc1 (centres undefined),0.991%
13,C[C@@H]1CN(C(=O)c2nc3ccc(Cl)cn3c2-c2ncc[nH]2)C[C@H](C)O1,-14.7%
14,Cc1nc(CN2CCO[C@@H]3CC(COc4ccccn4)C[C@H]32)cs1 (some centres undefined),-1.88%
15,CN1CCN(Cc2cccnc2)C2(CCN(C3CCOCC3)C2)C1=O (centres undefined),-5.52%
16,O=S(=O)(NCc1ccccc1Cn1cncn1)N1CCCCC1,-10.7%
17,CS(=O)(=O)CCOCCNc1ccc(Br)cn1,-3.34%
18,COCC(O)CNC(=O)c1coc(COc2ccc3sc(C)nc3c2)n1 (centres undefined),-9.49%
19,Cn1c(SCC2OCCc3ccccc32)n[nH]c1=O (centres undefined),-8.09%
20,CC(=O)N[C@@H](C)C(=O)NCc1cccnc1Oc1ccccc1F,-11.6%
21,CCn1nc(C)cc1C(=O)N1CC[C@H](OC)[C@H]2CN(CC3CC3)C[C@H]21,7.23%
22,COCc1cnc2n1CCN(C1CCCC1)C2C (centres undefined),5.67%
23,CCc1nc(NC(=O)NCCc2cscn2)nn1C,-4.65%

row,Compound,cytotoxicity at 70.5 h
1,CC(=O)NCC1CCN(Cc2nc(C3CC3)no2)CC1,-6.87%
2,CC(C)c1ccc(OCCC(=O)N2CCC(C(N)=O)CC2)cc1,-4.09%
3,c1ccc2c(N3CCOCC3)cnnc2c1,-8.59%
4,CC(C)c1ccccc1OCCNC(=O)N1CCC2(CC1)OCCO2,-2.15%
5,COc1ccc(C(=O)N2C[C@H]3CC[C@@H]2CN(C)C3)cc1Cl,47.4%
6,CCCNC(=O)CN1CCN(c2nc(CC)ns2)CC1,-9.67%
7,CN1CCC(N2CCC(c3ccccc3C(=O)O)C2)CC1 (centres undefined),-0.525%
8,COc1ccccc1CCC(=O)N1C[C@H](c2ccccc2)[C@@H](N)C1,-8.71%
9,CC(C)(CNC(=O)C1CCCN(C(N)=O)C1)c1cccc(Cl)c1 (centres undefined),9.61%
10,Cc1ccc(NC2CCN(C(=O)c3cc(C)sc3C)CC2)nn1,-11.8%
11,CC(c1nc(C2CC2)no1)N(C)Cc1ccc(C#N)cc1 (centres undefined),-1.86%
12,Cc1nc(CNc2ncc(Br)cn2)n[nH]1,-5.62%
13,CN1CCCN(C(=O)NCCNc2ncccc2C#N)CC1,-2.49%
14,c1ccc(N2CC3(CCN(Cc4cccnc4)C3)C2)nc1,-7.68%
15,CC1CCCCN1CCNC(=O)c1ccccc1N1CCOCC1 (centres undefined),19%
16,Cc1cc2nc(C(C)C)cc(NC(C)c3nncn3C3CCCC3)n2n1 (centres undefined),-11.7%
17,O=C(C[S+]([O-])Cc1ccc(Cl)cc1Cl)N1CCc2sccc2C1 (centres undefined),-3.09%
18,CC(=O)c1ccc(-n2c(C)cn(CCS(C)(=O)=O)c2=O)cc1,-11.2%
19,CS(=O)(=O)N1CCCC1Cn1cccn1 (centres undefined),2.44%
20,COC(=O)CC1C(=O)NCCN1c1nc2c(s1)c(C)nn2C (centres undefined),5.02%
21,Cn1cnc(S(=O)(=O)NCCC(O)c2ccc3c(c2)OCO3)c1 (centres undefined),20.5%
22,O=C(NCC1CCCO1)c1cc(-c2ccc3c(c2)CCO3)n[nH]1 (centres undefined),16.6%
23,Cc1cn2c(CN(C)C(=O)c3nccnc3N)c(C)nc2s1,0.596%

row,Compound,cytotoxicity at 70.5 h
1,CCn1ccc(-c2cc(C(=O)O)n3nc(C)c(Cl)c3n2)n1,-9.11%
2,CC(C)c1nnc(CNc2ccc(SC(F)(F)F)cc2)o1,36.9%
3,CC1CN(Cc2ccc(C#N)cc2F)CCN1Cc1nccn1C (centres undefined),-5.45%
4,C=Cc1ccc(C(=O)N2CCCC(Nc3ccc(F)cc3)C2)cc1 (centres undefined),17%
5,COc1ccc(NC(=O)c2nc(C)sc2C(C)C)cn1,-9.52%
6,CC(C(=O)N1CCN(Cc2ccncc2)CC1)n1cncn1 (centres undefined),-4.9%
7,Cc1ncc(CNC2CC(=O)N(CCc3cccc(Cl)c3)C2)n1C (centres undefined),-9.98%
8,CCC(NC(=O)COC)c1ccccc1OCC(=O)N1CCCC1 (centres undefined),-4.2%
9,Cc1cc(Cn2cc(C#N)c(=O)c3ccccc32)no1,-5.19%
10,NC(=O)c1c(NC(=O)CCCC(=O)O)sc2c1CCc1ccccc1-2,10.4%
11,COC1CCN(CCNC(=O)C2CCCCC2)CC1,-7.3%
12,Cc1cc(C(=O)N2CCC3(CCC(=O)N(CC(N)=O)C3)CC2)ccc1O,-14%
13,Cn1nnc2c1CCN(S(C)(=O)=O)C2COCc1ccccc1 (centres undefined),13.6%
14,COCCN1CC[C@@H]2CN(Cc3cccnc3OC)C[C@@H]2C1,13.9%
15,COCCN(Cc1cnn(C)c1)C(=O)C1CCC(=O)N(C2CCCC2)C1 (centres undefined),-15%
16,CC(C)N1CCc2ncn(C)c2C1C(=O)NCCN1CCCC1 (centres undefined),-8.41%
17,Cc1cnc(Nc2nccnc2C2CCN(C)CC2)s1,-19.6%
18,COc1cc(CNC(C)c2ccc(F)c(F)c2)cc2c1OCCO2 (centres undefined),1.07%
19,CN1C[C@H](O)C[C@H]1c1nc(-c2ccc(OC(F)(F)F)cc2)no1,-6.54%
20,Cc1nc2ccccn2c1CC(=O)N[C@@H]1CC[C@@H](N2CCOCC2)[C@@H]1O,-1.29%
21,CN(Cc1cccc(OC(F)(F)F)c1)Cc1cnn(C)c1,-12.4%
22,CN(C)S(=O)(=O)N1CCC(C)(c2ncc(C(N)=O)s2)CC1,-5.66%
23,Cc1ccc(CN2CC[C@@H]3[C@H]2CCC(=O)N3Cc2ccncc2)s1,21%

row,Compound,cytotoxicity at 70.5 h
1,Cc1nn(C)c2ncc(CN3CCN(c4ncccn4)CC3)cc12,-21.9%
2,Cc1cccc(NC(=O)c2sc(C)nc2C)n1,-11.8%
3,Cc1cc(C)n(C2CN(C(=O)Cn3c(=O)c(C)nc4ccccc43)C2)n1,30%
4,Cc1cc(C)n(C2CN(CC(O)c3ccc(S(C)(=O)=O)cc3)C2)n1 (centres undefined),0.799%
5,Cc1cc(C)nc(N(C)CCN(C)C2CCCC2)n1,-6.11%
6,CC1CCN(c2ncc3c(n2)CN(c2ccc4c(c2)OCO4)C3=O)CC1,-6.45%
7,Cc1cccc(CN2CCN(C(=O)c3cnc(C)[nH]c3=O)CC2)c1,12.7%
8,C[C@@H]1CN(c2nc(N)nc3c2CCC3)C[C@]1(C)O,1.03%
9,Cc1nc(CN(C)Cc2nc(-c3ccccc3)no2)co1,-1.63%
10,O=C(Cn1cc(Cl)cn1)N1CCNC1=O,48.7%
11,CC[C@@H](NC(C)=O)C(=O)NCc1cccnc1Oc1ccccc1OC,8.31%
12,COc1ccc(C(C)Nc2nc3c(C)nn(C)c3c(=O)n2C)cc1 (centres undefined),-3.89%
13,O=C(C(c1ccccc1)S(=O)(=O)c1ccccn1)N1CCCCC1 (centres undefined),-7.07%
14,Cc1ccc2nc(CN3CCN(C4CCCC4)C(=O)C3)cc(O)c2c1,9.29%
15,Cc1cc(C)n(C2CCCN(C(=O)c3cc(C4CC4)on3)C2)n1 (centres undefined),0.784%
16,CCC(NCCn1cccn1)C(=O)Nc1cc(C)on1 (centres undefined),24.9%
17,COc1cccc(CN2CCCCC2CN2CCOCC2)c1F (centres undefined),-2.15%
18,CC1CN(C(=O)c2ccn(-c3cccc(Cl)c3)n2)CCO1 (centres undefined),-6.58%
19,Cc1nc(CN(C)Cc2cnc(N3CCOCC3)s2)no1,22.9%
20,CCC(NC(=O)CNCC(F)(F)F)c1cc(F)ccc1F (centres undefined),-6.5%
21,CC1CN(C)c2ccccc2CN1C(=O)CSc1ccncc1 (centres undefined),1.51%
22,O=C(Cc1ccccc1F)N1CCN(C(=O)c2cccc(F)c2)CC1,38%
23,O=C(NCc1ccco1)[C@H]1CC[C@@H]2[C@@H](CCN2Cc2nccs2)O1,-4.65%

row,Compound,cytotoxicity at 70.5 h
1,COCCCC(=O)NC1(c2cccc(Br)c2)CC1,8.13%
2,COc1c(CNCc2ccc(OCC(N)=O)cc2)c(C)nn1C,7.56%
3,Cc1c2ncn(CC(=O)NC(C)C)c(=O)c2nn1C,3.83%
4,Cn1cc(CN2CCC3(CCCN(Cc4ccccn4)C3)CC2)cn1,-5.87%
5,O=C1COC2(COCCN(Cc3ccsc3)C2)CN1c1ccc(F)cc1 (centres undefined),-2.28%
6,COCCN(C)C[C@@H]1CN(C(=O)c2cccc(C#N)c2)C[C@@H]1CO,12.6%
7,CN(Cc1nccn1C)c1nccc(N2CCCC(O)C2)n1 (centres undefined),2.11%
8,C=C(C)CN1CCC(NC(=O)Nc2cc(C(N)=O)ccc2OC)CC1,-2.27%
9,Cc1noc(C)c1CN1CC2(CCN(C(=O)c3c[nH]cn3)C2)CC1=O (centres undefined),-11.1%
10,NC(=O)C1=NC2=NS(=O)(=O)c3ccccc3N2N1Cc1ccc(Cl)cc1,1.74%
11,Cc1cncc(C(=O)N2CCC(Cn3cc(-c4ccsc4)nn3)CC2)c1,-16.9%
12,Cc1ccc(N2CCO[C@H]3CN(Cc4ccoc4)C[C@H]32)nn1,6.75%
13,COc1ccccc1C(=O)N1CCNCC1C(N)=O (centres undefined),-2.25%
14,COCCn1cc2c(n1)C(CNC(=O)c1cc(C)[nH]c1C)OCC2 (centres undefined),-2.66%
15,CC(C)c1ncc2c(n1)CN(CCCc1nc3ccccc3o1)CC2,-3.98%
16,COCC(=O)N1CCN(Cc2csc(-c3ncccn3)n2)CC1,-2.92%
17,O=C(c1ccco1)N1CCC2(CCCN(c3ncc(F)cn3)C2)C1 (centres undefined),13.2%
18,Cc1ccc(CN2CCOC3(CCCN(C(=O)c4ccco4)C3)C2)s1 (centres undefined),-10.7%
19,Cc1cc(N2CCC3(CCCN(CCO)C3=O)C2)nc(C)c1C#N (centres undefined),-18.8%
20,CCOc1ccc(CN2C(=O)CC(C)(C)C2=O)nc1,2.3%
21,COc1ccc(C(C(=O)O)N(C)CCN2CCCC2)c(C)c1 (centres undefined),24%
22,COC(=O)c1cccc(C(=O)N(C)Cc2cccc(O)c2)c1,15.5%
